Results as given in BindingDB's records for doi:10.1111/j.1747-0285.2009.00860.x (National University of Singapore, 2009).

Target: T1, Dihydrofolate reductase (Bos taurus, UniProt P00376)
T1 sequence (P00376 whole entry): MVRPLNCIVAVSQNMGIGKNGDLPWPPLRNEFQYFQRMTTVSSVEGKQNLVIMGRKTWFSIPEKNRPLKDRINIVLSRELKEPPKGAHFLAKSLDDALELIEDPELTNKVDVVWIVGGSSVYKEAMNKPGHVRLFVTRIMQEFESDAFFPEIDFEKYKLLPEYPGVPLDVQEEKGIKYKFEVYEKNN
Experiment: Inhibition Assay
Source text: Inhibition activity using bovine dihydrofolate reductase (DHFR).

Row | IC50 | Structure (SMILES)
1 | 31 nM | NC1=NC2(CCCC2)N(OCCc2ccccc2)C(N)=N1 [6,8,10-Traiazaspiro[4.5]deca-6,8-diene-7,9-diamine, Ic]
2 | 1790 nM | NC1=NC2(CCCCC2)N(OCc2ccccc2)C(N)=N1 [1,3,5-Triazaspiro[5.5]undeca-1,3-diene-2,4-diamine, IIb]
3 | 41.4 nM | CN(CCCON1C(N)=NC(N)=NC12CCCCC2)c1ccccc1 [1,3,5-Triazaspiro[5.5]undeca-1,3-diene-2,4-diamine, IIf]
4 | 42.2 nM | NC1=NC2(CCCC2)N(OCCCCOc2ccccc2)C(N)=N1 [6,8,10-Traiazaspiro[4.5]deca-6,8-diene-7,9-diamine, Ig]
5 | 14.9 nM | CN(CCCON1C(N)=NC(N)=NC12CCCC2)c1ccccc1 [6,8,10-Traiazaspiro[4.5]deca-6,8-diene-7,9-diamine, If]
6 | 2.3 nM | NC1=NC2(CCCC2)N(OCCCOc2ccccc2)C(N)=N1
7 | 31.9 nM | NC1=NC2(CCCCC2)N(OCCCc2ccccc2)C(N)=N1 [1,3,5-Triazaspiro[5.5]undeca-1,3-diene-2,4-diamine, IId]
8 | 9.4 nM | NC1=NC2(CCCCC2)N(OCCc2ccccc2)C(N)=N1 [1,3,5-Triazaspiro[5.5]undeca-1,3-diene-2,4-diamine, IIc]
9 | 20.1 nM | NC1=NC2(CCCC2)N(OCCCc2ccccc2)C(N)=N1 [6,8,10-Traiazaspiro[4.5]deca-6,8-diene-7,9-diamine, Id]
10 | 6.9 nM | NC1=NC2(CCCCC2)N(OCCCOc2ccccc2)C(N)=N1
11 | > 50000 nM | NC1=NC2(CCCC2)N(Cc2ccccc2)C(N)=N1 [6,8,10-Traiazaspiro[4.5]deca-6,8-diene-7,9-diamine, Ia]
12 | 155 nM | NC1=NC2(CCCCC2)N(OCCCCOc2ccccc2)C(N)=N1 [1,3,5-Triazaspiro[5.5]undeca-1,3-diene-2,4-diamine, IIg]
13 | > 50000 nM | NC1=NC2(CCCCC2)N(Cc2ccccc2)C(N)=N1 [1,3,5-Triazaspiro[5.5]undeca-1,3-diene-2,4-diamine, IIa]
